Assay results taken from the supplement of paper PMC10307832.

Legend:
Assay in all cases: relative viability (nuclei count vs DMSO), 5 days (fraction); higher = more cells survive
[1] = compound: C(C(=O)C(=O)O)Br [Bromopyruvate] + Nc1nc2[nH]cc(CCc3ccc(C(=O)N[C@@H](CCC(=O)O)C(=O)O)cc3)c2c(=O)[nH]1 [Pemetrexed] (partner 0.2 µM)
How it was run: (§1)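 Values are medians from duplicate plates. Each reflects relative viability, defined as the nuclei count of treated wells over that of vehicle wells. Lung cancer cell lines in 1536-well plates were pin-tool dosed one day after seeding with one drug alone or with a fixed anchor-drug dose plus five library-drug doses (not always all listed) in √10 steps, then fixed, stained and imaged at 4× after 5 days.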

[2] = compound: C(C(=O)C(=O)O)Br [Bromopyruvate] + CC1(C)CCC(c2ccc(Cl)cc2)=C(CN2CCN(c3ccc(C(=O)NS(=O)(=O)c4ccc(N[C@H](CCN5CCOCC5)CSc5ccccc5)c(S(=O)(=O)C(F)(F)F)c4)cc3)CC2)C1 [Navitoclax] (partner 0.5 µM)
How it was run: as §1

[3] = compound: CC(O)(CS(=O)(=O)c1ccc(F)cc1)C(=O)Nc1ccc(C#N)c(C(F)(F)F)c1 [Bicalutamide] + N=C(N)NC(=N)NCCc1ccccc1 [Phenformin] (partner 250 µM)
How it was run: as §1

[4] = compound: C(C(=O)C(=O)O)Br [Bromopyruvate] + CC(C)C[C@H](NC(=O)[C@H](Cc1ccccc1)NC(=O)c1cnccn1)B(O)O [Bortezomib] (partner 0.002 µM)
How it was run: as §1

Row | Cell Line | relative viability ([1]; first compound 1 µM) | relative viability ([1]; first compound 3.162 µM) | relative viability ([1]; first compound 10 µM) | relative viability ([1]; first compound 31.62 µM) | relative viability ([1]; first compound 100 µM) | relative viability ([2]; first compound 1 µM) | relative viability ([2]; first compound 3.162 µM) | relative viability ([2]; first compound 10 µM) | relative viability ([2]; first compound 31.62 µM) | relative viability ([2]; first compound 100 µM) | relative viability ([3]; first compound 0.08 µM) | relative viability ([3]; first compound 0.253 µM) | relative viability ([3]; first compound 0.8 µM) | relative viability ([3]; first compound 2.53 µM) | relative viability ([4]; first compound 1 µM) | relative viability ([4]; first compound 3.162 µM) | relative viability ([4]; first compound 10 µM) | relative viability ([4]; first compound 31.62 µM) | relative viability ([4]; first compound 100 µM)
1 | HCC-366 | 0.17 | 0.174 | 0.146 | 0.203 | 0.2 | 1.04 | 1.05 | 1.14 | 1.04 | 1.03 | 0.568 | 0.615 | 0.699 | 0.64 | 1.04 | 1.06 | 1.38 | 1.09 | 1.18
2 | HCC-827 | 0.26 | 0.247 | 0.26 | 0.262 | 0.266 | 1.02 | 1 | 0.99 | 1.12 | 0.996 | 0.405 | 0.316 | 0.412 | 0.443 | 1.05 | 1.07 | 1.03 | 1.08 | 1.05
3 | HOP-62 | 0.302 | 0.321 | 0.326 | 0.356 | 0.207 | 1.05 | 0.961 | 1.12 | 1.08 | 0.899 | 0.681 | 0.651 | 0.769 | 0.698 | 0.739 | 0.832 | – | 0.547 | 0.628
4 | IA-LM | – | – | – | – | – | 0.798 | 0.723 | 0.654 | 0.763 | 0.818 | – | – | – | – | 0.872 | 0.835 | 0.908 | 0.835 | 0.64
5 | LC-2-ad | 0.294 | 0.287 | 0.269 | 0.298 | 0.298 | 0.436 | 0.404 | 0.35 | 0.459 | 0.476 | 0.607 | 0.529 | 0.654 | 0.56 | 0.924 | 0.934 | 1.07 | 0.977 | 0.988
6 | LCLC-97TM1 | 0.182 | 0.152 | 0.187 | 0.164 | 0.195 | – | – | 0.538 | 0.492 | 0.316 | 0.442 | 0.426 | 0.463 | 0.443 | 0.957 | 0.625 | 0.735 | 0.573 | 0.586
7 | LCLC-103H | 0.468 | 0.465 | 0.472 | 0.446 | 0.48 | – | – | – | – | – | 0.305 | 0.326 | 0.379 | 0.355 | 1.05 | 0.998 | 1.06 | 1.08 | 1.16
8 | LK-2 | 0.346 | 0.23 | 0.312 | 0.237 | 0.261 | 0.9 | 0.85 | 0.818 | 0.888 | 0.772 | 0.526 | 0.198 | 0.498 | 0.629 | – | – | – | – | –
9 | NCI-H358 | 0.147 | 0.145 | 0.164 | 0.17 | 0.183 | – | – | – | – | – | 0.336 | 0.344 | 0.401 | 0.35 | – | – | – | – | –
10 | NCI-H522 | 0.902 | 1.25 | 1.24 | 1.07 | 1.11 | – | – | – | – | – | 0.659 | 0.649 | 0.622 | 0.661 | – | – | – | – | –
11 | NCI-H650 | 0.971 | 0.924 | 0.81 | 0.989 | 0.941 | – | – | – | – | – | 0.52 | 0.433 | 0.466 | 0.395 | 0.946 | 0.819 | 0.856 | 0.897 | 0.973
12 | NCI-H661 | 0.905 | 0.944 | 0.985 | 0.889 | 0.907 | – | – | – | – | – | 0.289 | 0.284 | 0.289 | 0.251 | 0.862 | 0.755 | 0.84 | 0.854 | 0.98
13 | NCI-H727 | – | – | – | – | – | 0.469 | 0.526 | 0.401 | 0.425 | 0.509 | 0.618 | – | 0.734 | 0.821 | 1.01 | 0.984 | 0.939 | 0.729 | 1.01
14 | NCI-H1299 | – | – | – | – | – | 1.04 | 1.07 | 1.03 | 1.03 | 1.02 | – | – | – | – | 0.973 | 1.02 | 1.06 | 0.956 | 1
15 | NCI-H1395 | 0.978 | 0.917 | 0.884 | 0.847 | 0.928 | 1.24 | 1.24 | 1.28 | 1.17 | 1.21 | 0.467 | 0.417 | 0.478 | 0.446 | – | – | – | – | –
16 | NCI-H1563 | 0.815 | 0.717 | 0.823 | 0.674 | 0.757 | – | – | – | – | – | 0.695 | 0.718 | 0.654 | 0.629 | 0.859 | 0.925 | 0.868 | 0.789 | 0.943
17 | NCI-H1623 | – | – | – | – | – | – | – | – | – | – | – | 0.594 | 0.587 | 0.55 | – | – | – | – | –
18 | NCI-H1648 | 0.661 | 0.813 | 0.689 | 0.651 | 0.728 | – | – | – | – | – | – | – | – | – | – | – | – | – | –
19 | NCI-H1703 | – | – | – | – | – | 1.06 | 1.22 | 1.42 | 1.34 | 1.16 | – | – | – | – | 0.369 | 0.244 | 0.366 | 0.315 | 0.543
20 | NCI-H1793 | 0.91 | 1.18 | 0.989 | 0.906 | 1.16 | 0.673 | 0.376 | 0.377 | 0.516 | 0.511 | 0.317 | 0.318 | 0.545 | 0.392 | – | – | – | – | –
21 | NCI-H1944 | 0.576 | 0.707 | 0.625 | 0.656 | 0.63 | 1.08 | 1.15 | 1.02 | 1.01 | 1.05 | 0.216 | 0.181 | 0.238 | 0.217 | – | – | – | – | –
22 | NCI-H2170 | 0.277 | 0.27 | 0.249 | 0.258 | 0.626 | 0.549 | 0.533 | 0.577 | 0.541 | 0.57 | 0.418 | 0.412 | 0.429 | 0.47 | – | – | – | – | –
23 | NCI-H2342 | 0.848 | 0.779 | 0.847 | 0.636 | 0.74 | – | – | – | – | – | 0.641 | 0.466 | 0.702 | 0.608 | – | – | – | – | –
24 | SK-MES-1 | 0.999 | 0.974 | 0.941 | 0.94 | 1.01 | 1.1 | 1.25 | 1.17 | 1.29 | 1.26 | 0.726 | 0.654 | 0.728 | 0.617 | – | – | – | – | –
25 | SW 900 | 0.487 | 0.463 | 0.555 | 0.446 | 0.472 | – | – | – | – | – | 0.511 | 0.555 | 0.874 | 0.411 | – | – | – | – | –
